These results are taken from patent publication US9844536B2, “3-(1H-imidazo[4,5-C]pyridin-2-yl)-1H-pyrazolo[3,4-C]pyridine and therapeutic uses thereof” (Samumed, LLC, priority 2014, dated 2017).

SMILES strings stand for the structures.

What all share (format): cell-based
Assay [1] relates to Wnt pathway (Sp5-Luc reporter, SW480 cells). As to the kind of experiment: Sp5-Luc reporter gene screening assay for Wnt activity in SW480 colon carcinoma cells. The following applies: Homo sapiens. A digest of the protocol: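 IC50 values come from variable-slope four-parameter fits of luciferase signal normalized to DMSO wells. Stable Sp5-Luc reporter SW480 colon carcinoma cells were exposed to compounds in a 3-fold dilution series (source plates from 10 mM stock) for forty-two hours at 37 °C.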
In general terms: Reporter assays use an easily measured gene product as a stand-in for the process of interest.

For a further assay, the system named is LL29 cells. In words: Inhibition of the fibrotic process (αSMA staining) in TGF-β1 treated primary human fibroblasts from IPF patients. The note with it: Fibroblast, 96 h, TGF-β1 20 ng/mL, 4 days, dose-response 10 μM to 1.87 nM, read-out: Inhibition of fibrosis EC50. The method, boiled down: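 LL29 IPF lung fibroblasts in 1% FBS were stimulated with TGF-β1 (20 ng/mL) and treated 4 days at 37 °C with compound (11 points, 10 μM–1.87 nM, 0.1% DMSO). The % αSMA-positive cells, imaged after excluding SYTOX-positive dead cells, was normalized to TGF-β1/DMSO wells. EC50 came from nonlinear regression over triplicates.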

Another assay concerns ARPE-19 cells. In words: Transdifferentiation of ARPE-19 cells into eye neuronal cells [photoreceptors], PAX6 staining. The note with it: Homo sapiens, fixed at 40 hours, PAX6 antibody staining, normalized to DMSO. The method, then: The above synthesized compounds were screened using ARPE-19 cells [a spontaneously arising retinal pigment epithelia (RPE) cell line] to determine their ability to transdifferentiate ARPE-19 into eye neuronal cells [photoreceptors].
ARPE-19 cells are cultured in standard culture medium containing Dulbecco's Modified Eagle's Medium and Ham's F12 Nutrient Mixture (DMEM/F12) mix (1:1)+GlutaMax with 1% penicillin-Streptomycin and 10% FBS (Fetal Bovine Serum). Cells are incubated at 37° C. with 5% CO2. Cells are trypsinized and plated onto 384-well pre-spotted plate at a density of 3000 cells/well in 50 uL of media. Plating media: DMEM/F12 (1:1)+3% charcoal filtered-FBS+GlutaMax+1% pen/Strep. Cells are incubated at 37° C. with 5% CO2. At 40 hours, cells were fixed for 15 min with 10% Buffered Formalin. Cells were then washed 3 times with PBS for 5 min each, permeablize using 0.3% Triton X-100 in 1×PBS for 30 min, block for 1 hr with 2% BSA in 1×PBS with 0.1% Triton X-100. The primary antibody (1:100 PAX6 Santa Cruz Biotech; sc-81649) was diluted and 10 μL/well was added to the cells. The cells were incubated overnight at 4° C. […] Readings were normalized to DMSO only treated cells, and normalized activities were utilized for EC50 calculations using the dose-response log (activator) vs. response-variable slope (four parameters) nonlinear regression feature available in GraphPad Prism 5.0 or 6.0.

One may read the IC50 as the point on the concentration scale where inhibition reaches its midpoint. Lower therefore signals greater potency. One may read the EC50 as the concentration giving half of the maximal effect.

In turn, `CN(C)CCOc1cncc(-c2cc3c(-c4nc5c(-c6cccc(F)c6)nccc5[nH]4)n[nH]c3cn2)c1` [Compound 947, 2-((5-(3-(4-(3-Fluorophenyl)-1H-imidazo[4,5-c]pyridin-2-yl)-1H-pyrazolo [3,4-c]pyridin-5-yl)pyridin-3-yl)oxy)-N,N-dimethylethan-1-amine] came in with an IC50 in assay [1] of 99 nM. Besides, the EC50 amounted to 484 nM in the assay on LL29 cells and 35 nM in the assay with ARPE-19 cells.
